Patent US9078890B2, “Use of koumine and its homologues in preparation of medicament for treatment of autoimmune diseases of involved bones and joints” (priority 2011, dated 2015)
Marks after values point to notes of the source that are not given here.

Experiments:
[1] = tested on: type II collagen-induced arthritis rat; experiment: Type II collagen-induced arthritis rat: condition and body weight; format: in vivo, Wistar rat
Experimental: (§1) Under aseptic conditions, 10 mg chicken type II collagen protein was fully mixed with 5 ml 10 mM glacial acetic acid solution, and stirred overnight in refrigerator at 4° C. to fully dissolve it. It was mixed with complete Freund's adjuvant in equal volume in ice bath to fully emulsify into an emulsion with a collagen concentration of 1 mg/ml.
(§2) Wistar rats are divided into a modeling group and a false modeling group. After the modeling group rats were narcotized with intraperitoneal injection of pentobarbital, the above emulsion was injected intracutaneously at 3 to 4 positions at back, tail root or the like, 0.3 ml for each, an primary immunity was carried out. After 7 days, a secondary immunity was carried out, the emulsifying agent complete Freund's adjuvant of initial immunity was replaced with incomplete Freund's adjuvant, 0.1 ml the emulsion was injected under sevoflurane inhalation anesthesia wherein the injection position is different from the last time. In false modeling group, the emulsion was replaced with solvent glacial acetic acid solution.
(§3) Successfully modeled rat in the modeling group were randomly divide into 5 groups: low, middle, high-dose koumine treatment group, positive control group, negative control group, 10 rats for each group. Beginning from Day 21 after modeling, corresponding intervention was carried out as following in 10 days continuously: 0.6, 3, 15 mg/kg koumine were intragastrically administrated to the low, middle, high-dose koumine treatment group respectively, 1 time every day; 1 mg/kg amethopterin was administrated to the positive control group, 1 time every 3 days, equal volume of physiological saline was administrated for the remained days; equal volume of physiological saline was administrated to the negative control group.

[2] = tested on: type II collagen-induced arthritis rat; experiment: Type II collagen-induced arthritis rat: thermal hyperalgesia (thermal withdrawal latency); format: in vivo, Wistar rat; conditions: amethopterin 1 mg/kg once every 3 days
Experimental: as §1, §2, §3
1 hour after intragastric administration, the thermal withdrawal latency of each group was determined by the photo-thermal dolorimeter; the mechanical pain threshold of rats of each group was determined by Von-frey electromechanical pain threshold detector, thus the condition of thermal hyperalgesia and mechanical hyperalgesia of rats of each group was observed.

adjuvant arthritis mice = experiment: Adjuvant arthritis mice: hyperalgesia (phlogogenic paw thermal withdrawal latency); format: in vivo, Kunming mice
Experimental: BCG was inactivated in water bath at 80° C., and fully emulsified along with complete Freund's adjuvant to form complete Freund's adjuvant emulsion containing 5 mg/ml BCG, preserved at 4° C., and shake well before use. The Kunming mice were divided into a modeling group and a false modeling group. According to the method recited in the literature [Rasool M, Sabina E P, Lavanya B. Anti-inflammatory effect of Spirulina fusiformis on adjuvant-induced arthritis in mice. Biol Pharm Bull. 2006, 29(12):2483-7], for the modeling group, the model was prepared by intradermal injection of 20 ul the emulsion under the plantar surface of right paws after the mice was narcotized; for the false modeling group, the emulsion was replaced with physiological saline. For the modeling group, the animals were screened on Day 8 after injection: the mice with the injected paw thickness increased >0.5 mm and thermal hyperalgesia occurred (paw thermal withdrawal latency <8 second) were selected as experimental subjects. The selected mice were divided into 5 groups randomly: low, middle, high dose treatment group (0.8, 4, 20 mg/kg); indomethacin positive control group (10 mg/kg); negative control group (physiological saline), each comprising 12 animals. Day 8 after inflammation, intragastric administration was carried out on each group to give corresponding intervention, one time per day for 10 days continuously.
30 min after intragastric administration, the phlogogenic paw thermal withdrawal latency of the mice in each group was determined by photo-thermal dolorimeter to reflect animals' hyperalgesia status.

Compound | Body weight after intervention, Day 7 ([1]; amethopterin 1 mg/kg once every 3 days from Day 21, Day 7) [g] | Body weight after intervention, Day 14 ([1]; amethopterin 1 mg/kg once every 3 days from Day 21, Day 14) [g] | Body weight after intervention, Day 21 ([1]; amethopterin 1 mg/kg once every 3 days from Day 21, Day 21) [g] | Body weight after intervention, Day 31 ([1]; amethopterin 1 mg/kg once every 3 days from Day 21, Day 31) [g] | Body weight before intervention ([1]; amethopterin 1 mg/kg once every 3 days, from Day 21 after modeling for 10 days, before intervention) [g] | Thermal stimulus withdrawal latency, Before intervention ([2]; before intervention) [s] | Thermal stimulus withdrawal latency, Intervention Day 2 ([2]; intervention Day 2) [s] | Thermal stimulus withdrawal latency, Intervention Day 4 ([2]; intervention Day 4) | Thermal stimulus withdrawal latency, Intervention Day 6 ([2]; intervention Day 6) | Thermal stimulus withdrawal latency, Intervention Day 8 ([2]; intervention Day 8) | Thermal stimulus withdrawal latency, Intervention Day 10 ([2]; intervention Day 10) | Thermal stimulus withdrawal latency, Before intervention (adjuvant arthritis mice; indomethacin 10 mg/kg intragastric once daily for 10 days from Day 8 after inflammation, before intervention) [s] | Thermal stimulus withdrawal latency, Intervention Day 4 (adjuvant arthritis mice; indomethacin 10 mg/kg intragastric once daily from Day 8, Day 4) | Thermal stimulus withdrawal latency, Intervention Day 8 (adjuvant arthritis mice; indomethacin 10 mg/kg intragastric once daily from Day 8, Day 8) | Thermal stimulus withdrawal latency, Intervention Day 12 (adjuvant arthritis mice; indomethacin 10 mg/kg intragastric once daily from Day 8, Day 12) | Thermal stimulus withdrawal latency, Intervention Day 16 (adjuvant arthritis mice; indomethacin 10 mg/kg intragastric once daily from Day 8, Day 16) | Thermal stimulus withdrawal latency, Intervention Day 18 (adjuvant arthritis mice; indomethacin 10 mg/kg intragastric once daily from Day 8, Day 18)
CN(Cc1cnc2nc(N)nc(N)c2n1)c1ccc(C(=O)N[C@@H](CCC(=O)O)C(=O)O)cc1 [Positive control group, Amethopterin, reference compound] | 154.5 ± 8.36 | 178.2 ± 5.93 | 203.1 ± 9.11 | 227.0 ± 12.68 | 129.8 ± 6.21 | 8.05 ± 1.01 | 8.48 ± 0.73 | 9.15 ± 0.57**^★★ second | 9.27 ± 1.09**^★ second | 9.50 ± 1.08**^★★ second | 10.31 ± 1.21**^★ second |  |  |  |  |  | 
COc1ccc2c(c1)c(CC(=O)O)c(C)n2C(=O)c1ccc(Cl)cc1 [Positive control, Indomethacin, reference compound] |  |  |  |  |  |  |  |  |  |  |  | 13.8 ± 1.2 | 5.9 ± 1.1^★★ second | 4.1 ± 0.8^★★ second | 8.9 ± 0.9**^★ second | 9.8 ± 1.6**^★ second | 10.1 ± 1.2**^★★ second
